The results in this text go back to US20230114123A1, “METHOD OF STIMULATING ASYMMETRIC DIVISION OF SATELLITE STEM CELLS” (Ottawa Hospital Research Institute, priority 2017, published 2023).

One assay concerns satellite stem cells. Put plainly: EDL myofiber culture, satellite stem cell divisions (Myf5-Cre/R26R-eYFP, wild type). The format is cell-based, mouse. To be noted: 42 h culture, Lapatinib 1 μM vs DMSO vehicle. The procedure: EGFR Signaling Regulates Asymmetric Satellite Stem Cell Divisions. To assess the role of EGFR in asymmetric division, the inventors cultured satellite cells in myofibers isolated from Extensor digitorum longus (EDL) muscles from Myf5-Cre/R26R-eYFP mice and performed both loss-of-function and gain-of-function experiments. Isolated myofibers were first cultured for 42 h with and without treatment with the Lapatinib, a specific inhibitor of EGFR signaling.
EDL fiber Culture and siRNA Transfection. Myofiber culture was performed as described in Dumont, N. A., et al. “Dystrophin expression in muscle stem cells regulates their polarity and asymmetric division.” Nat. Med. (2015) 21:1455-63, which is incorporated herein by reference. Briefly, EDL were carefully dissected and incubated in DMEM with 2% L-glutamine, 4.5% glucose, and 110 mg/mL sodium pyruvate (Gibco) containing 0.2% collagenase I (Sigma) for 45 min. Myofibers were isolated using gentle trituration with a glass pipet. Myofibers were cultured for 36, 42, or 72 h in DMEM containing 20% FBS (Wisent), 1% chick embryo extract (MP Biomedicals), and 2.5 ng/ml bFGF (Cedarlane). For pharmacological inhibition, Lapatinib ditosylate (1 mM in DMSO; Santa
Cruz Biotechnology), PTP1b inhibitor CAS 765317-72-4 (10 mM in DMSO; Santa Cruz Biotechnologies) was added to the culture medium for a final concentration of 1 μM or 10 μM, respectively; equal dilution of DMSO was used as vehicle control.
Transfection of satellite cells on myofibers was performed using lipofectamine RNAimax (Life Technologies) and validated Smartpool siRNAs for EGFR, Aurka, or scramble (SCR) (Dharmacon). Two transfections were performed at 4 h and 16 h after isolation of the myofibers as described in Le Grand, et al. (2009) Wnt7a activates the planar cell polarity pathway to drive the symmetric expansion of satellite stem cells. Cell Stem Cell 4, pp 535-547, which is incorporated herein by reference. Knockdown efficiencies of the siRNA were validated in myoblasts by western blot and qRT-PCR.

The subject of the next assay is EGFR signaling. The format is cell-based.
The next assay deals with satellite cell divisions. The assay can be described thus: FDB myofiber screening method validation (YFP(-) divisions). Type of assay: cell-based, mouse. The conditions noted are these: control 62% (Wnt7a experiment), control 45% (EGF / PTP1b experiment). From the text:
EGFR pathway activators may be identified in a method of screening potential activators. The method includes visualizing isolated, cultured, and stained Flexor Digitorum Brevis (FDB) myofibers from Myf5-Cre/ROSA26-YFP mice in a plurality of Z-stack planes to create a projection image. Muscle satellite cells are identified in the projection image based on Pax7 expression. Of the identified muscle satellite cells: (i) satellite stem cells are identified based on the absence of YFP expression, and (ii) committed satellite progenitor cells are identified based on yellow fluorescence protein (YFP) expression. A potential EGFR pathway activator is administered to the FDB myofibers. The number of symmetric divisions of satellite myogenic cells, identified by the production of two YFP(+) satellite cells, are counted; the number of symmetric satellite stem cell divisions, identified by the production of two YFP(−) satellite cells, are counted; and the number of asymmetric satellite cell divisions, identified by the production of one YFP(+) and one YFP(−) satellite cell, are counted. The potential EGFR pathway activator is identified as an EGFR pathway activator when the percent of YFP(−) divisions that are asymmetric divisions is greater than the corresponding percent in a control sample. The expression “YFP(−) divisions” refers to all cell divisions where one of the daughter cells is YFP(−).
Identification of EGFR pathway activators. Flexor Digitorum brevis (FDB) fibers were isolated from Myf5-Cre/Rosa-YFP mice and digested in 0.25% Collagenase Type I (Sigma) in DMEM (Dulbecco's modified Eagle's medium; high glucose, L-glutamine with 110 mg/ml sodium pyruvate) for 2.5-3 h. Myofibers were dissociated using gentle trituration with a glass pipette.
Myofibers are cultured at 37° C., 5% CO2 for 42 h in myofiber culture media (DMEM supplemented with 20% FBS(Wisent), 1% Chicken Embryo extract (MP Biomediacals), 1% Penicillin/Streptomycin (Cederlane) and 2.5 ng/ml basic Fibroblast Growth Factor (Cedarlane).
Myofibers are first fixed in 2% Paraformaldehyde (PFA) for 5 mins. Myofibers are blocked for 1-2 h in 1% Bovine Serum Albumin, 0.5% TritonX-100, 5% HS and 0.01% Sodium Azide. Primary antibodies are applied in blocking solution for 2 h at room temperature or at 4° C. overnight. Myofibers are washed with PBS and stained with appropriate fluorescently labeled secondary antibodies (Alexa Fluor 488, 546) for 1 hat room temperature. Following washing with PBS, fiber nuclei are stained with DAPI for 5 min. The following antibodies are used: mouse anti-Pax7 (Developmental Studies Hybridoma Bank (DSHB)), chicken anti-GFP (cat. no. ab13970, Abcam).
Satellite cells are focused based on Channel 3 (DAPI) staining. Autofocus is performed by sampling seven (7) z-stacks taken at […] intervals for an extended depth of field of 85.3 μm.
Z-stack images were consolidated to create a projection image with all satellite cells in focus. Image acquisition of a projection image for analysis was created from seven (7) Z-stack images taken at 6.5 μm intervals, for an extended depth of field of 45.5 μm at 200 (Objective 20×) magnification. The projection direction was centered, where the median stacks fall within the center of each myofiber. […]
Potential satellite cells were first identified based on Channel 1 (Pax7) signal, and separated from other satellite cells based on intensity of fluorescence between cells. […]

For `CS(=O)(=O)CCNCc1ccc(-c2ccc3ncnc(Nc4ccc(OCc5cccc(F)c5)c(Cl)c4)c3c2)o1` [Lapatinib, reference compound], the “decrease in the rate of asymmetric divisions” value in the assay on satellite stem cells (FIG. 1A) is reported as 83%. Moreover, the “increase in the number of satellite stem cells” value in the assay on satellite stem cells (FIG. 1B) was 71%. Moreover, the “EGFR signaling at the concentration used in the screen” value with EGFR signaling was “completely abolishes EGFR signaling”.

B1: Wnt7a ligand: known activator of symmetric satellite cell divisions (protein, UniProt O00755 32-349, looked up)
Protein Wnt-7a: LGASIICNKIPGLAPRQRAICQSRPDAIIVIGEGSQMGLDECQFQFRNGRWNCSALGERTVFGKELKVGSREAAFTYAIIAAGVAHAITAACTQGNLSDCGCDKEKQGQYHRDEGWKWGGCSADIRYGIGFAKVFVDAREIKQNARTLMNLHNNEAGRKILEENMKLECKCHGVSGSCTTKTCWTTLPQFRELGYVLKDKYNEAVHVEPVRASRNKRPTFLKIKKPLSYRKPMDTDLVYIEKSPNYCEEDPVTGSVGTQGRACNKTAPQASGCDLMCCGRGYNTHQYARVWQCNCKFHWCCYVKCNTCSERTEMYTCK
As for B1, in the assay with satellite cell divisions, the “percentage of YFP(-) divisions that were symmetric divisions” value is on record as 78%.
